Active and inactive are the calls of the source.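 How the source made its calls: active means inhibition of plasma PAF acetylhydrolase at a set limit or more at 0.1 µM, with tenfold selectivity over all off-targets; inactive means inhibition below the limit or weaker selectivity.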
Key:
[1] = molecular target: Platelet-activating factor acetylhydrolase (Mus musculus) (UniProt Q60963); assay: pPAFAH inhibition and serine hydrolase selectivity, late-stage follow-up, selectivity assay for pPAFAH inhibitor project, biochemical, gel-based, FP-Rh fluorescence, mouse, HTS hit compounds (AID 588773); conditions: gel-based competitive ABPP, proteome, pPAFAH, stronger effect = higher value
Chain of Platelet-activating factor acetylhydrolase (Mus musculus) (Q60963 whole entry, looked up): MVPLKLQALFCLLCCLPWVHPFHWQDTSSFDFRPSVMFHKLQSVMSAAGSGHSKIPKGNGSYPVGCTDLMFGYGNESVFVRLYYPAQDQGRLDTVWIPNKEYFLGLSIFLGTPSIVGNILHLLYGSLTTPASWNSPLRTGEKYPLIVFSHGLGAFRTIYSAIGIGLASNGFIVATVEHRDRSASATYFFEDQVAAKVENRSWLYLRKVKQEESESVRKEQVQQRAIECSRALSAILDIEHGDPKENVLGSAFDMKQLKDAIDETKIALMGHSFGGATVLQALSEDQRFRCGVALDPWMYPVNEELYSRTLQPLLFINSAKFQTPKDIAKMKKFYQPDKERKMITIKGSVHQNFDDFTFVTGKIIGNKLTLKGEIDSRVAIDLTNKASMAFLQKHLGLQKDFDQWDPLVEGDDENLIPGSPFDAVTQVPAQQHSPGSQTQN

[2] = molecular target: Monoglyceride lipase (Mus musculus) (UniProt O35678); assay: as above; conditions: gel-based competitive ABPP, proteome, MAGL; for inhibition: stronger effect = higher value
Chain of Monoglyceride lipase (Mus musculus) (O35678 whole entry, looked up): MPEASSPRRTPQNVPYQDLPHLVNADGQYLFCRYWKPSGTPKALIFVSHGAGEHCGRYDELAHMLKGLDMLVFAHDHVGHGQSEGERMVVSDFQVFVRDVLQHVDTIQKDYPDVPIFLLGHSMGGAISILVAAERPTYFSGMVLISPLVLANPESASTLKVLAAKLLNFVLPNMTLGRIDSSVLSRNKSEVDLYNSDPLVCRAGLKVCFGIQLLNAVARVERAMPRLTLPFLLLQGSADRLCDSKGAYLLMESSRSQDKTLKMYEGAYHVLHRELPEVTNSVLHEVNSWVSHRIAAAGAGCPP

[3] = molecular target: ABHD4 (UniProt Q8VD66); assay: as above; conditions: gel-based competitive ABPP, proteome, at 10 µM
Chain of ABHD4 (Q8VD66 whole entry, looked up): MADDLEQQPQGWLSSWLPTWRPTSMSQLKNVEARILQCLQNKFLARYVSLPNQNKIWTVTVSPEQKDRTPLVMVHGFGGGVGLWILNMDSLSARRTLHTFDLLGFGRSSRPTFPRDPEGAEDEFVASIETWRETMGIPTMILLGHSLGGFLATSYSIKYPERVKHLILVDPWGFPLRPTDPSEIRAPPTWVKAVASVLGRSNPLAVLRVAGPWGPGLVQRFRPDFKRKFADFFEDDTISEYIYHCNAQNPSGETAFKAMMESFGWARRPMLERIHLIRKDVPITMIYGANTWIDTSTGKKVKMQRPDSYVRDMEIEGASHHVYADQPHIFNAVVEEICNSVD

[4] = tested on: LYPLA2; assay: as above; conditions: gel-based competitive ABPP, proteome, at 10 µM
[5] = tested on: ABHD3; assay: as above; conditions: gel-based competitive ABPP, proteome, at 10 µM
[6] = tested on: ABHD6; assay: as above; conditions: gel-based competitive ABPP, proteome; for inhibition: stronger effect = higher value
[7] = tested on: LYPLA1; assay: as above; conditions: gel-based competitive ABPP, proteome, at 10 µM
[8] = tested on: FAAH; assay: as above; conditions: gel-based competitive ABPP, proteome, stronger effect = higher value
[9] = as above; conditions: gel-based competitive ABPP, proteome, MW 30 kDa protein, stronger effect = higher value

CCCCOC(=O)c1ccc(OC(=O)N2CCOCC2)cc1
inhibition ([1]; at 10 µM): 90% (inactive) | inhibition ([1]; inhibition, at 0.1 µM): 5% | inhibition ([1]; inhibition, at 1 µM): 70% | outcome ([2]; at 10 µM): inactive | outcome [3]: inactive | outcome [4]: inactive | outcome [5]: inactive | inhibition ([6]; at 10 µM): 22% (inactive) | inhibition ([6]; inhibition, at 1 µM): 9% | outcome [7]: inactive | inhibition ([8]; at 10 µM): 62% (inactive) | inhibition ([8]; inhibition, at 1 µM): 30%

O=C(CCCSc1ccc(Cl)cc1)Nc1cc(S(=O)(=O)N2CCOCC2)ccc1O
inhibition ([1]; at 10 µM): 88% (inactive) | inhibition ([1]; inhibition, at 0.1 µM): 18% | inhibition ([1]; inhibition, at 1 µM): 50% | inhibition ([2]; at 10 µM): 27% (inactive) | outcome [3]: inactive | outcome [4]: inactive | outcome [5]: inactive | inhibition ([6]; at 10 µM): 26% (inactive) | outcome [7]: inactive | inhibition ([8]; at 10 µM): 25% (inactive)

O=C(Oc1ccc(Oc2ccccc2)cc1)N1CCC(O)CC1
inhibition ([1]; at 10 µM): 92% (inactive) | inhibition ([1]; inhibition, at 1 µM): 62% | outcome ([2]; at 10 µM): inactive | outcome [3]: inactive | outcome [4]: inactive | outcome [5]: inactive | inhibition ([6]; at 10 µM): 39% (inactive) | inhibition ([6]; inhibition, at 1 µM): 19% | outcome [7]: inactive | inhibition ([8]; at 10 µM): 17% (inactive) | inhibition ([8]; inhibition, at 1 µM): 2%

O=C(Oc1ccc(-c2ccccc2)cc1)N1CCOCC1
inhibition ([1]; at 10 µM): 94% (inactive) | inhibition ([1]; inhibition, at 0.1 µM): 32% | inhibition ([1]; inhibition, at 1 µM): 78% | inhibition ([2]; at 10 µM): 20% (inactive) | inhibition ([2]; inhibition, at 1 µM): 6% | outcome [3]: inactive | outcome [4]: inactive | outcome [5]: inactive | inhibition ([6]; at 10 µM): 25% (inactive) | inhibition ([6]; inhibition, at 0.1 µM): 12% | inhibition ([6]; inhibition, at 1 µM): 16% | outcome [7]: inactive | inhibition ([9]; at 0.1 µM): 21% | inhibition ([9]; at 1 µM): 27% | inhibition ([8]; at 10 µM): 83% (inactive) | inhibition ([8]; inhibition, at 0.1 µM): 23% | inhibition ([8]; inhibition, at 1 µM): 31%

O=C(Oc1nsnc1N1CCOCC1)N1CCOCC1
inhibition ([1]; at 10 µM): 86% (inactive) | inhibition ([1]; inhibition, at 1 µM): 28% | outcome ([2]; at 10 µM): inactive | outcome [3]: inactive | outcome [4]: inactive | outcome [5]: inactive | inhibition ([6]; at 10 µM): 39% (inactive) | inhibition ([6]; inhibition, at 1 µM): 29% | outcome [7]: inactive | inhibition ([9]; at 0.1 µM): 4% | inhibition ([9]; at 1 µM): 23% | inhibition ([8]; at 10 µM): 85% (inactive) | inhibition ([8]; inhibition, at 1 µM): 80%

CN(C)C(=O)Oc1noc2cc(Cl)ccc12
inhibition ([1]; at 10 µM): 100% (inactive) | inhibition ([1]; inhibition, at 0.1 µM): 47% | inhibition ([1]; inhibition, at 1 µM): 92% | inhibition ([2]; at 10 µM): 33% (inactive) | inhibition ([2]; inhibition, at 1 µM): 2% | outcome [3]: inactive | outcome [4]: inactive | outcome [5]: inactive | inhibition ([6]; at 10 µM): 65% (inactive) | inhibition ([6]; inhibition, at 0.1 µM): 21% | inhibition ([6]; inhibition, at 1 µM): 26% | outcome [7]: inactive | inhibition ([9]; at 1 µM): 6% | inhibition ([8]; at 10 µM): 100% | inhibition ([8]; inhibition, at 0.1 µM): 100% | inhibition ([8]; inhibition, at 1 µM): 100%

O=C(Oc1ccc(-c2ccccc2)cc1)N1CCCCC1
inhibition ([1]; at 10 µM): 95% (inactive) | inhibition ([1]; inhibition, at 0.1 µM): 35% | inhibition ([1]; inhibition, at 1 µM): 33% | inhibition ([2]; at 10 µM): 40% (inactive) | inhibition ([2]; inhibition, at 1 µM): 36% | outcome [3]: inactive | outcome [4]: inactive | outcome [5]: inactive | inhibition ([6]; at 10 µM): 53% (inactive) | inhibition ([6]; inhibition, at 1 µM): 34% | outcome [7]: inactive | inhibition ([9]; at 0.1 µM): 18% | inhibition ([9]; at 1 µM): 60% | inhibition ([8]; at 10 µM): 99% (inactive) | inhibition ([8]; inhibition, at 1 µM): 56%

O=C(Oc1ccc([N+](=O)[O-])cc1)N1CCC(N2CCCCC2)CC1
inhibition ([1]; at 10 µM): 92% (inactive) | inhibition ([1]; inhibition, at 1 µM): 66% | inhibition ([2]; at 10 µM): 45% (inactive) | inhibition ([2]; inhibition, at 1 µM): 23% | outcome [3]: inactive | outcome [4]: inactive | outcome [5]: inactive | inhibition ([6]; at 10 µM): 48% (inactive) | inhibition ([6]; inhibition, at 1 µM): 22% | outcome [7]: inactive | inhibition ([9]; at 1 µM): 22% | inhibition ([8]; at 10 µM): 60% (inactive) | inhibition ([8]; inhibition, at 1 µM): 30%

O=C(/C=C/c1cccs1)c1cc(Br)ccc1OC(=O)N1CCOCC1
inhibition ([1]; at 10 µM): 75% (inactive) | inhibition ([1]; inhibition, at 1 µM): 56% | outcome ([2]; at 10 µM): inactive | outcome [3]: inactive | outcome [4]: inactive | outcome [5]: inactive | outcome ([6]; at 10 µM): inactive | outcome [7]: inactive | inhibition ([8]; at 10 µM): 61% (inactive) | inhibition ([8]; inhibition, at 1 µM): 18%
